The values below come from patent US20250034161A1, “SPIROCYCLIC COMPOUND AS KRAS-G12C INHIBITOR” (Shanghai Euregen Biopharma Co., Ltd., priority 2020, published 2025).

Each structure is given as a SMILES string.

The term IC50 denotes the concentration that gives 50% inhibition. As usually defined, the half-life is how long it takes for the measured level to halve.

For one series, the target named is CYP 3A4 (Homo sapiens, UniProt P08684). Description: CYP inhibition test, human liver microsomes, CYP3A4. The note with it: IC50(μM). The protocol: • 1. Test purpose: to evaluate the inhibitory ability of some of the example compounds of the present invention against CYP1A2, 2B6, 2C8, 2C9, 2C19, 2D6 and 3A4 via human liver microsomes. • 2. […] Test method:
• 1. K/Mg buffer: the components were 0.1 mol/L potassium phosphate and 5 mmol/L magnesium chloride with pH 7.4±0.1, preheated. • 2. Solution of the test compound: the test compound was dissolved in dimethyl sulfoxide to prepare a stock solution of 10 mmol/L. 8 μL of 10 mmol/L stock solution was transferred to a 96-well plate containing 12 μL of acetonitrile as the highest concentration point, at 3-fold dilution, for 8 concentrations. • 3. […] Human liver microsomal stock solution: human liver microsomes were dissolved in 0.1 mol/L K/Mg buffer to obtain 20 mg/mL stock solution. • 5. Human liver microsomal working solution: 10 μL of 20 mg/mL human liver microsomal stock solution was taken and added into 990 μL of 0.1 mol/L K/Mg buffer to prepare 0.2 mg/mL human liver microsomal solution. • 6.
600 μL of 0.2 mg/mL human liver microsomal solution and 3 μL of stepwise diluted test compound solution were added to the 96-well plate. 30 μL of the above solution was added on the 96-well plate followed by the addition of 15 μL of the corresponding substrate solution. The 96-well plate and the NADPH solution were pre-incubated at 37° C. for 5 minutes, and 15 μL of NADPH solution was added to the 96-well plate to start the reaction. The assay plate was incubated at 37° C. for 5 minutes for 3A4, 10 minutes for 1A2, 2B6 and 2C9, 20 minutes for 2C8 and 2D6, and 45 minutes for 2C19. Then the reaction was terminated by 180 μL of acetonitrile containing internal standard substance. After quenching, the plate was shook for 10 minutes (600 rpm/min) and then centrifuged at 6000 rpm for 15 minutes. 80 μL of supernatant was taken from each well and transferred to a 96-well sample plate containing 120 μL of ultrapure water for LC-MS/MS analysis.
In general terms: Liver microsomes are vesicles of endoplasmic reticulum, rich in cytochrome P450 enzymes.

Series [1] is described as follows: Plasma protein binding assay (equilibrium dialysis), rat plasma. The class given is in vitro ADME. The note with it: pH 7.4, equilibrium dialysis 5 hours, read-out: Plasma protein binding rate (%) (converted). Here is the method: (§1) • 1. Test purpose: to evaluate the protein binding rate of the test compound in human, dog, monkey, rat and mouse plasma by equilibrium dialysis; • 2. […] Experimental methods: • 0.1 mol/L sodium phosphate and 0.15 mol/L sodium chloride buffer with pH 7.4±0.1 was preheated;
(§2) Preparation of plasma containing test substance: the test compound was dissolved in DMSO to prepare a 10 mmol/l stock solution. 5 μL of stock solution was taken and diluted with 95 μL of acetonitrile to obtain solution A (0.5 mmol/L). 8 μL of solution A was taken and diluted with 192 μL of 0.1 mol/L sodium phosphate buffer to obtain solution B (0.02 mmol/L). 570 μL of plasma was added into a 96-well plate followed by the addition of 30 μL of solution B. The final concentration was 1 μmol/L with 0.01% DMSO.
(§3) The plate was shook at 600 rpm for 10 minutes, covered and stored in a freezer (−20° C.).
(§4) T5 sample preparation (in triplicate): the dialysis device was added with 100 μL of buffer on its receiver side and 100 μL of plasma containing the test compound on its doner side. And the dialysis device was then shook at 37° C. and 120 rpm for 5 hours. At the end of culture, 25 μL of plasma containing the test substance was taken from the plasma side and then added to a 96-well plate, followed by the addition of 25 μL of buffer and 200 μL of acetonitrile solution containing internal standard. […]

Series [2] is described as follows: Whole blood stability assay, rat whole blood. The class given is in vitro ADME. The note with it: 37° C. Here is the method:
(§5) • 1. Test purpose: to determine the whole blood stability of the compounds by monitoring the clearance rate of the parent compound after incubation of some of the example compounds of the invention with dog and rat whole blood. • 2. […] Test method:
(§6) Then, the stock solution of the test compound was diluted to 1 mmol/L and 0.2 mmol/L with 70% acetonitrile aqueous solution, respectively, as working solution.
(§7) The working solution was added to the whole blood. The concentration of each test compound was 5 μmol/L. 90 μL was taken and then mixed evenly with 90 μL of water. Then 600 μL of acetonitrile termination solution containing propranolol as internal standard was added. Incubated at 37° C. in a water bath and shook gently. At 30, 60, 120 and 240 minutes, 90 μL of each mixture was placed on a clean 96-well plate prefilled with 90 μL of water, mixed well, and then 600 μL of acetonitrile termination solution containing propranolol as internal standard was added and centrifuged at 5000 g for 15 min. 80 μL of the supernatant was taken and placed in a 96-well plate preloaded with 160 μL of ultrapure water, then analyzed by LC-MS/MS.

Series [3] in a line: Plasma protein binding assay (equilibrium dialysis), mouse plasma. The class given is in vitro ADME. The note with it: pH 7.4, Mice plasma, equilibrium dialysis 5 hours, read-out: Plasma protein binding rate (%) (converted). The protocol: as §1, §2, §3, §4
Background: Equilibrium dialysis compares concentrations on both sides of a semipermeable membrane.

The target of the next series is hERG potassium channel (Homo sapiens, UniProt Q12809). The series is described as follows: hERG experiment, manual membrane clamp on HEK293 cells.
hERG potassium channel, sequence (Q12809 whole entry): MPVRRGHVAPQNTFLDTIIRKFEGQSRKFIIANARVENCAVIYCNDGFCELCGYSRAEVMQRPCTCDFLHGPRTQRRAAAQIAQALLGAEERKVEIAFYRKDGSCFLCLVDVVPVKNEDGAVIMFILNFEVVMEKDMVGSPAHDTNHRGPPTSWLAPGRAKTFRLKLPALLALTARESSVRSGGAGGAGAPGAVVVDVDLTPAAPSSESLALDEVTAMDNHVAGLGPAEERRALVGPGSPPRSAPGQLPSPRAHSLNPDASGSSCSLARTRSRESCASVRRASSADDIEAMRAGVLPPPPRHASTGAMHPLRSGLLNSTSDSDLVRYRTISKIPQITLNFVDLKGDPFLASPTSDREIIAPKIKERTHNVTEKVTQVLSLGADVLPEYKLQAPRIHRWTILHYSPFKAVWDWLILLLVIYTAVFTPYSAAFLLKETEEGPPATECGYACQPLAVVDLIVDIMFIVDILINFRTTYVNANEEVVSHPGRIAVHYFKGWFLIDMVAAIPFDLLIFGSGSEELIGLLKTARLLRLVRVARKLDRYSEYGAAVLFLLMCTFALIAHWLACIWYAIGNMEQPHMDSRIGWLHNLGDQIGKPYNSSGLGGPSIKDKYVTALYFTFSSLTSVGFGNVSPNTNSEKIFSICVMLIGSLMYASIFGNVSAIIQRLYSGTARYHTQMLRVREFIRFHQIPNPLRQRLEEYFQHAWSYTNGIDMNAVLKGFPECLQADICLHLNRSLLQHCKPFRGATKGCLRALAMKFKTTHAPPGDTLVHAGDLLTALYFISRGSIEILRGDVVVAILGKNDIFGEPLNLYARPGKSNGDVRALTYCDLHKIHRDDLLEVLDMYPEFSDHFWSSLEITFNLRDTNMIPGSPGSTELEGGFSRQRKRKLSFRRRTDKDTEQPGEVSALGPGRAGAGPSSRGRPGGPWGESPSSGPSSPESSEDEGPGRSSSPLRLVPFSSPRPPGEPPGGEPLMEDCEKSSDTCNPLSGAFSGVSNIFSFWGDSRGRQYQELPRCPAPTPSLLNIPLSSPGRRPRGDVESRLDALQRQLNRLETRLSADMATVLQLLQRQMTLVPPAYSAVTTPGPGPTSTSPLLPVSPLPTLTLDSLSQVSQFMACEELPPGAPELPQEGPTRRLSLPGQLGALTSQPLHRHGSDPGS
The nature of series [4]: Plasma protein binding assay (equilibrium dialysis), dog plasma. The class given is in vitro ADME. The note with it: pH 7.4, equilibrium dialysis 5 hours, read-out: Plasma protein binding rate (%) (converted). The protocol:
as §1, §2, §3, §4

Series [5] in a line: Whole blood stability assay, dog whole blood. The note with it: 37° C. The class given is in vitro ADME. Here is the method: as §5, §6, §7
Where [6] appears, read: CYP 3 A4-M, substrate midazolam.
[7] abbreviates: CYP 3 A4-T, substrate testosterone.

CYP 3A4, sequence (P08684 whole entry): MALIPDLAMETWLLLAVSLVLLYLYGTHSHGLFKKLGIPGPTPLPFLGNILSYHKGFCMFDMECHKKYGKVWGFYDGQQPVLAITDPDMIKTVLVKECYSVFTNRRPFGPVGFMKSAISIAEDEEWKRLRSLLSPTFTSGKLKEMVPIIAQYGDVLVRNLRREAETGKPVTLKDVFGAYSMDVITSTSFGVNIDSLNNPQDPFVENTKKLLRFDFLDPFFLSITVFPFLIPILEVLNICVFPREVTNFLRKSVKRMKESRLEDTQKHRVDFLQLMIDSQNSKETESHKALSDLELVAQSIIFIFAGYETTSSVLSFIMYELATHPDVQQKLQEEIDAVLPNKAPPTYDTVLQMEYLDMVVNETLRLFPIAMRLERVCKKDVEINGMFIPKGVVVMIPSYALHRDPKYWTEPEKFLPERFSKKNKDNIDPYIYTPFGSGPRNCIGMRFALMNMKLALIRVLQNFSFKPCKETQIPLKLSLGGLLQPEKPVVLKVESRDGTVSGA
Source text for hERG potassium channel: hERG Experiment • 1. Test purpose: to test the inhibition of hERG current on HEK293 cells stably transfected with hERG potassium channel by manual membrane clamp; • 2. […] Manual membrane clamp system amplifier was purchased from Molecular Devices (Model No. MultiClamp700B); Manual membrane clamp system digital-to-analog converter was purchased from Molecular Devices (Model No. Axon Digidata1550B); Rapid perfusion system was purchased from ALA Scientific Ins. […] Experimental methods:
The cells were resuspended with culture medium and stored in a centrifuge tube, the supernatant was discarded after centrifugation, then the cells were resuspended with extracellular liquid for later use, and stored at 2-8° C.
The whole-cell membrane clamp technique was applied to record hERG currents. The cell suspension was added into small Petri dishes and placed on an inverted microscope stage. After cells were adhered, they were perfused with extracellular fluid at a recommended flow rate of 1-2 mL/min. The glass microelectrode was drawn in two steps by a micropipette puller, and its resistance value in water was 2-5 MΩ after filling with electrode internal fluid.
After the whole-cell recording mode was established, the clamp potential was maintained at −80 mV. […]
Stimulus release and signal acquisition were performed on PatchMaster software. […] Data was expressed as mean and standard deviation. […]

Regarding `C=CC(=O)N1CCN(c2nc(=O)n(-c3c(C)ccnc3C(C)C)c3nc(-c4c(O)cccc4F)c(F)cc23)[C@@H](C)C1` [AMG510], the IC50 is 5.07 µM on CYP 3A4 (setting [6]), more than 10 µM against CYP 3A4 (setting [7]) and more than 30 µM against hERG potassium channel. In addition, the fraction unbound at 5 h, 1 μmol/L in series [1] was 0.141; in series [3], 0.091; in series [4] it was 0.079. Moreover, the half-life at 5 μmol/L in series [2] was found to be 1.85 h; in series [5], 1.46 h.

For `C=C(F)C(=O)N1CCN(c2nc(OC[C@@H]3CCCN3C)nc3c2CCN(c2cccc4cccc(Cl)c24)C3)C[C@@H]1CC#N` [MRTX849], the figures for the half-inhibitory concentration (IC50) at CYP 3A4 (setting [6]), at CYP 3A4 (setting [7]) and against hERG potassium channel were 6.83 µM, more than 10 µM and 0.99 µM, respectively. In addition, the fraction unbound at 5 h, 1 μmol/L in series [1] was 0.01; in series [3] it was 0.004; in series [4], 0.012. Also, the half-life at 5 μmol/L in series [2] was determined as 13.1 h; in series [5] it was 6.15 h.
